Results published in ChEMBL document CHEMBL2406963, “Tetrazole and triazole as bioisosteres of carboxylic acid: discovery of diketo tetrazoles and diketo triazoles as anti-HCV agents” (Bioorg Med Chem Lett, 2013).

Legend:
[1] = system: Hepatitis C virus; test: Antiviral activity against HCV infected in human Huh7 cells assessed as inhibition of viral replication by measuring EGFP autofluorescence at 50 uM by CCK8 assay relative to control; assay type: functional, Hepacivirus hominis; settings: Huh-7
[2] = system: Hepatitis C virus; test: Antiviral activity against HCV infected in human Huh7 cells assessed as inhibition of viral replication by measuring EGFP autofluorescence at 2 uM by CCK8 assay relative to control; assay type: functional, Hepacivirus hominis; settings: Huh-7
[3] = Selectivity index, ratio of CC50 for human HuH7 cells to EC50 for HCV; set-up: species or system Huh-7
[4] = system: Hepatitis C virus; test: Antiviral activity against HCV infected in human Huh7 cells assessed as inhibition of viral replication by measuring EGFP autofluorescence by CCK8 assay; assay type: functional, organism-based, Hepacivirus hominis; settings: Huh-7
[5] = Cytotoxicity against human HuH7 cells; assay type: cell-based, Huh-7
[6] = system: Hepatitis C virus; test: Inhibition of NS5A protein synthesis in HCV by Western blot analysis; assay type: functional, organism-based; settings: Hepacivirus hominis
[7] = system: Hepatitis C virus; test: Inhibition of viral genome mRNA expression in HCV by RT-PCR analysis; assay type: functional, organism-based; settings: Hepacivirus hominis

SMILES	inhibition at 50 µM [1] [%]	further results
O=C(CC(=O)c1ccco1)c1nnn[nH]1	0.9	
CC(C)C(=O)OC[C@H]1O[C@@H](n2ccc(N)nc2=O)[C@](C)(F)[C@@H]1OC(=O)C(C)C [MERICITABINE]		inhibition at 2 µM [2]: 75.3%
O=C(CC(=O)c1nnc[nH]1)c1cccc(OCc2ccccc2)c1	48.2	
O=C(CC(=O)c1ccccc1OCc1ccc(F)cc1)c1nnn[nH]1	6.8	
O=C(CC(=O)c1nnn[nH]1)c1ccc(OCc2ccc(F)cc2)cc1	10.7	
O=C(CC(=O)c1ccccc1OCc1ccc(Cl)cc1)c1nnn[nH]1	36.2	
O=C(/C=C(\O)c1nc[nH]n1)c1ccc(Cc2ccc(F)cc2)o1 [S-1360]	22.4	
O=C(CC(=O)c1nnc[nH]1)c1ccc(OCc2ccc(Cl)cc2)cc1	70.2	Ratio CC50/EC50 [3]: >77; EC50 [4]: 6.5 µM; CC50 [5]: > 500 µM
O=C(CC(=O)c1ccccc1OCc1ccccc1)c1nnc[nH]1	34.4	
O=C(CC(=O)c1nnn[nH]1)c1cccc(OCc2ccccc2)c1	11.1	
O=C(CC(=O)c1nnc[nH]1)c1cccc(OCc2ccc(Cl)cc2)c1	29.2	
O=C(CC(=O)c1nnc[nH]1)c1cccc(OCc2ccc(F)cc2)c1	43.4	
O=C(/C=C(\O)c1nnn[nH]1)c1c[nH]c2ccc(Cl)cc12	24.3	
O=C(CC(=O)c1nnc[nH]1)c1ccc(OCc2ccc(F)cc2)cc1	69.7	Ratio CC50/EC50 [3]: >128; inhibition [6]: Dose-dependent effect; inhibition [7]: Dose-dependent effect; EC50 [4]: 3.9 µM; CC50 [5]: > 500 µM
O=C(CC(=O)c1ccccc1OCc1ccc(F)cc1)c1nnc[nH]1	55	
O=C(CC(=O)c1nnn[nH]1)c1ccc(OCc2ccccc2)cc1	54.9	
O=C(CC(=O)c1nnn[nH]1)c1ccccc1	-1.3	
O=C(CC(=O)c1nnn[nH]1)c1cccc(OCc2ccc(F)cc2)c1	62.7	
O=C(CC(=O)c1nnc[nH]1)c1ccccc1	24.8	
O=C(CC(=O)c1ccccc1OCc1ccc(Cl)cc1)c1nnc[nH]1	53.8	
O=C(CC(=O)c1nnn[nH]1)c1ccc([N+](=O)[O-])cc1	14.7	
O=C(CC(=O)c1nnc[nH]1)c1ccc(OCc2ccccc2)cc1	12.1	
O=C(CC(=O)c1nnn[nH]1)c1cccc(OCc2ccc(Cl)cc2)c1	43.6	
COc1ccc(C(=O)CC(=O)c2nnn[nH]2)cc1	28.7	
O=C(CC(=O)c1nnn[nH]1)c1ccc(OCc2ccc(Cl)cc2)cc1	64.9	
O=C(CC(=O)c1ccccc1OCc1ccccc1)c1nnn[nH]1	67.6	Ratio CC50/EC50 [3]: >54; EC50 [4]: 9.2 µM; CC50 [5]: > 500 µM
O=C(CC(=O)c1ccco1)c1nnc[nH]1	14.5	
